Reference: ChEMBL document CHEMBL3739267, “Synthesis of 2,6-dicarbethoxy-3,5-diaryltetrahydro-1,4-thiazine-1,1-dioxide derivatives as potent anticonvulsant agents” (Eur J Med Chem, 2015)
Calls of active or inactive are those of the source. The rule behind the calls is not given here.

Tests used:
Mus musculus [1] = assay: Anticonvulsant activity in Swiss albino mouse assessed as reduction of subcutaneous pentylenetetrazole-induced seizure at 300 mg/kg, ip after 4 hrs; type: functional, organism-based
Mus musculus [2] = assay: Neurotoxicity in Swiss albino mouse assessed as inability of animal to maintain equilibrium on rod at 300 mg/kg, ip after 4 hrs by rotarod test; type: toxicity, organism-based; conditions: in vivo
Mus musculus [3] = assay: Anticonvulsant activity in ip dosed Swiss albino mouse assessed as reduction of maximal electroshock-induced seizure after 0.5 hrs; type: functional; conditions: read-out: MED
Mus musculus [4] = assay: Anticonvulsant activity in ip dosed Swiss albino mouse assessed as reduction of maximal electroshock-induced seizure after 4 hrs; type: functional; conditions: read-out: MED
Mus musculus [5] = assay: (§1) Neurotoxicity in ip dosed Swiss albino mouse assessed as inability of animal to maintain equilibrium on rod after 0.5 hrs by rotarod test; type: toxicity, organism-based; conditions: in vivo, 0.5 h
Mus musculus [6] = assay: Anticonvulsant activity in ip dosed Swiss albino mouse assessed as reduction of subcutaneous pentylenetetrazole-induced seizure after 0.5 hrs; type: functional; conditions: read-out: MED
Mus musculus [7] = assay: Anticonvulsant activity in ip dosed Swiss albino mouse assessed as reduction of maximal electroshock-induced seizure; type: functional
Mus musculus [8] = assay: Anticonvulsant activity in ip dosed Swiss albino mouse assessed as reduction of subcutaneous pentylenetetrazole-induced seizure; type: functional
Mus musculus [9] = assay: Anticonvulsant activity in Swiss albino mouse assessed as reduction of subcutaneous pentylenetetrazole-induced seizure at 300 mg/kg, ip after 0.5 hrs; type: functional, organism-based
Mus musculus [10] = assay: Neurotoxicity in ip dosed Swiss albino mouse assessed as inability of animal to maintain equilibrium on rod after 4 hrs by rotarod test; type: toxicity, organism-based; conditions: in vivo
Mus musculus [11] = assay: Neurotoxicity in Swiss albino mouse assessed as inability of animal to maintain equilibrium on rod at 300 mg/kg, ip after 0.5 hrs by rotarod test; type: toxicity, organism-based; conditions: in vivo
Mus musculus [12] = assay: Protective index, ratio of TD50 for ip dosed Swiss albino mouse assessed as inability of animal to maintain equilibrium on rod after 0.5 hrs by rotarod test to ED50 for Swiss albino mouse assessed as reduction of maximal electroshock-induced seizure; type: functional
Mus musculus [13] = assay: Protective index, ratio of TD50 for ip dosed Swiss albino mouse assessed as inability of animal to maintain equilibrium on rod after 0.5 hrs by rotarod test to ED50 for Swiss albino mouse assessed as subcutaneous pentylenetetrazole-induced seizure; type: functional
[14] = as §1; type: toxicity, organism-based; conditions: Swiss albino, in vivo
Mus musculus [15] = assay: Anticonvulsant activity in ip dosed Swiss albino mouse assessed as reduction of subcutaneous pentylenetetrazole-induced seizure after 4 hrs; type: functional; conditions: read-out: MED
Mus musculus [16] = assay: Anticonvulsant activity in Swiss albino mouse assessed as reduction of maximal electroshock-induced seizure at 300 mg/kg, ip after 0.5 hrs; type: functional, organism-based
Mus musculus [17] = assay: Anticonvulsant activity in Swiss albino mouse assessed as reduction of maximal electroshock-induced seizure at 300 mg/kg, ip after 4 hrs; type: functional, organism-based

Row | SMILES | Activity (Mus musculus [1]) | Activity (Mus musculus [2]) | minimal effective dose (Mus musculus [3]) [mg/kg] | minimal effective dose (Mus musculus [4]) [mg/kg] | MTC (Mus musculus [5]) [mg/kg] | minimal effective dose (Mus musculus [6]) [mg/kg] | ED50 (Mus musculus [7]) [mg/kg] | ED50 (Mus musculus [8]) [mg/kg] | Activity (Mus musculus [9]) | MTC (Mus musculus [10]) [mg/kg] | Activity (Mus musculus [11]) | Ratio TD50/ED50 (Mus musculus [12]) | Ratio TD50/ED50 (Mus musculus [13]) | TD50 at 0.5 h [14] [mg/kg] | minimal effective dose (Mus musculus [15]) [mg/kg] | Activity (Mus musculus [16]) | Activity (Mus musculus [17])
1 | CCOC(=O)C1C(c2cccc(Cl)c2)NC(c2cccc(Cl)c2)C(C(=O)OCC)S1(=O)=O (stereo not drawn) | inactive | Non-toxic | 100 | 300 | 300 | 300 |  |  |  |  |  |  |  |  |  |  | 
2 | O=C1NC(=O)C(c2ccccc2)(c2ccccc2)N1 [PHENYTOIN] | inactive |  | 30 | 30 | 100 | 100 | 9.8 | > 300 | inactive | 100 |  |  |  |  |  |  | 
3 | CCOC(=O)C1C(c2cccs2)NC(c2cccs2)C(C(=O)OCC)S1(=O)=O (stereo not drawn) | inactive |  | 100 | 300 |  | 300 |  |  |  | 300 | Non-toxic |  |  |  |  |  | 
4 | CCOC(=O)C1C(c2ccc[nH]2)NC(c2ccc[nH]2)C(C(=O)OCC)S1(=O)=O (stereo not drawn) | inactive | Non-toxic | 100 | 300 | 300 | 300 |  |  |  |  |  |  |  |  |  |  | 
5 | CCOC(=O)C1C(c2ccc([N+](=O)[O-])cc2)NC(c2ccc([N+](=O)[O-])cc2)C(C(=O)OCC)S1(=O)=O (stereo not drawn) |  | Non-toxic | 30 | 100 |  | 300 | 11.4 | 73.2 |  |  | Non-toxic | 16.7 | 2.6 | 190 | 300 |  | 
6 | CCOC(=O)C1C(c2cc3ccccc3[nH]2)NC(c2cc3ccccc3[nH]2)C(C(=O)OCC)S1(=O)=O (stereo not drawn) |  | Non-toxic | 30 | 100 |  | 300 | 13.2 | 56.8 |  |  | Non-toxic | 9 | 2.1 | 119 | 300 |  | 
7 | CCOC(=O)C1C(c2ccccc2)NC(c2ccccc2)C(C(=O)OCC)S1(=O)=O (stereo not drawn) |  | Non-toxic | 30 | 100 |  | 300 | 14.8 | 58.6 |  |  | Non-toxic | 8.8 | 2.2 | 131 | 300 |  | 
8 | CCOC(=O)C1C(c2ccccn2)NC(c2ccccn2)C(C(=O)OCC)S1(=O)=O (stereo not drawn) | inactive |  | 300 | 300 |  |  |  |  | inactive | 300 | Non-toxic |  |  |  |  |  | 
9 | CCOC(=O)C1C(c2ccc(OC)cc2)NC(c2ccc(OC)cc2)C(C(=O)OCC)S1(=O)=O (stereo not drawn) | inactive |  | 100 | 300 |  | 300 |  |  |  | 300 | Non-toxic |  |  |  |  |  | 
10 | CCOC(=O)C1C(c2ccco2)NC(c2ccco2)C(C(=O)OCC)S1(=O)=O (stereo not drawn) | inactive |  | 300 | 300 |  |  |  |  | inactive | 300 | Non-toxic |  |  |  |  |  | 
11 | CCC1(C)CC(=O)NC1=O (stereo not drawn) [ETHOSUXIMIDE] |  | Non-toxic |  |  |  | 100 |  |  |  |  | Non-toxic |  |  |  | 300 | inactive | inactive
12 | CCOC(=O)C1C(c2cc3ccccc3nc2Cl)NC(c2cc3ccccc3nc2Cl)C(C(=O)OCC)S1(=O)=O (stereo not drawn) |  | Non-toxic | 30 | 100 |  | 300 | 12.4 | 62.7 |  |  | Non-toxic | 10.3 | 2 | 128 | 300 |  | 
13 | CCOC(=O)C1C(c2ccc(Cl)cc2)NC(c2ccc(Cl)cc2)C(C(=O)OCC)S1(=O)=O (stereo not drawn) |  | Non-toxic | 30 | 30 |  | 100 | 10.2 | 50.5 |  |  | Non-toxic | 28.3 | 5.7 | 289 | 300 |  | 
14 | CCC1(c2ccccc2)C(=O)NC(=O)NC1=O [PHENOBARBITAL] |  |  |  |  |  |  | 20.6 | 13.2 |  |  |  |  |  | 68.2 |  |  | 
15 | CCOC(=O)C1C(c2ccsc2)NC(c2ccsc2)C(C(=O)OCC)S1(=O)=O (stereo not drawn) | inactive |  | 100 | 300 |  | 300 |  |  |  | 300 | Non-toxic |  |  |  |  |  | 
16 | CCOC(=O)C1C(c2cccnc2)NC(c2cccnc2)C(C(=O)OCC)S1(=O)=O (stereo not drawn) | inactive |  | 300 | 300 |  |  |  |  | inactive | 300 | Non-toxic |  |  |  |  |  | 
17 | CCOC(=O)C1C(c2ccc(OC)c(OC)c2)NC(c2ccc(OC)c(OC)c2)C(C(=O)OCC)S1(=O)=O (stereo not drawn) | inactive |  | 100 | 300 |  | 300 |  |  |  | 300 | Non-toxic |  |  |  |  |  | 
18 | NC(=O)N1c2ccccc2C=Cc2ccccc21 [CARBAMAZEPINE] |  |  |  |  |  |  | 11.4 | > 100 |  |  |  |  |  |  |  |  | 
19 | CCCC(CCC)C(=O)O [VALPROIC ACID] |  |  |  |  |  |  |  | 149 |  |  |  |  |  |  |  |  | 
20 | CCOC(=O)C1C(c2ccc(C)cc2)NC(c2ccc(C)cc2)C(C(=O)OCC)S1(=O)=O (stereo not drawn) |  | Non-toxic | 30 | 100 |  | 300 | 14.4 | 90.2 |  |  | Non-toxic | 15.7 | 2.5 | 227 | 300 |  | 
21 | CCOC(=O)C1C(c2ccc3c(c2)OCO3)NC(c2ccc3c(c2)OCO3)C(C(=O)OCC)S1(=O)=O (stereo not drawn) |  | Non-toxic | 30 | 100 |  | 300 | 27.4 | 220 |  |  | Non-toxic | 9 | 1.1 | 248 | 300 |  | 
22 | CCOC(=O)C1C(c2ccccc2Cl)NC(c2ccccc2Cl)C(C(=O)OCC)S1(=O)=O (stereo not drawn) | inactive | Non-toxic | 100 | 300 |  | 300 |  |  |  |  | Non-toxic |  |  |  |  |  | 
